Test results as given in patent US4127665A, “Thienohydantoin derivatives” (Pfizer Inc., priority 1978, dated 1978).
Like-named read-outs stand apart in the source and are kept apart here.

How the values were obtained:
aldose reductase = target: T1, aldose reductase (Bos taurus, UniProt P16116); experiment: Inhibition of aldose reductase enzyme activity (partially purified enzyme from calf lens); assay type: biochemical; settings: for inhibition at 100 µM: 10^-4 M; for inhibition at 10 µM: 10^-5 M; for inhibition at 1 µM: 10^-6 M; for inhibition at 1 µM / inhibition at 0.1 µM: low negative values not significant; for inhibition at 0.1 µM: 10^-7 M
T1 construct: partially purified aldose reductase enzyme obtained from calf lens; from tissue; host or cells: calf lens
Procedure: The spiro-thienohydantoins of Examples 1 through 5 were tested for their ability to reduce or inhibit aldose reductase enzyme activity, following the procedure described in U.S. Pat. No. 3,821,383 and based on the procedure of Hayman et. al., Journal of Biological Chemistry, 240, 877 (1965). The substrate employed was partially purified aldose reductase enzyme obtained from calf lens. The results obtained with each compound at a concentration of 10^-4 M are expressed as percent inhibition of enzyme activity.
The test of Example 6 was repeated at different concentrations of the compound under test, namely 10^-4 M, 10^-5 M, 10^-6 M, and 10^-7 M.
In this test, values below 20 are not always experimentally and statistically significant.

[1] = tested on: sorbitol accumulation in the sciatic nerve of streptozotocinized (i.e., diabetic) rats; experiment: Inhibition of sorbitol accumulation in the sciatic nerve of streptozotocinized (diabetic) rats; assay type: in vivo, rat; settings: measured 27 hours after induction, vs untreated
Procedure: The compounds of Examples 4 and 5 were tested for their ability to reduce or inhibit sorbitol accumulation in the sciatic nerve of streptozotocinized (i.e., diabetic) rats by the procedure essentially described in U.S. Pat. No. 3,821,383. In the present study, the amount of sorbitol accumulation in the sciatic nerves was measured 27 hours after induction of diabetes. The compounds were administered orally at the dose levels indicated at 4, 8 and 24 hours following the administration of streptozotocin. The results obtained in this manner are presented below in terms of percent inhibition (%) afforded by the test compound as compared to the case where no compound was administered (i.e., the untreated animal where sorbitol levels normally rise from approximately 50-100 mM/g. tissue to as high as 400 mM/g. tissue in the 27-hour test period): […]

[2] = Example 6 test, calf lens enzyme, read-out: % Inhibition at 10^-4 M
[3] = Example 7 repeat test, values below 20 not always significant, read-out: % Inhibition
[4] = Example 7 repeat test, values below 20 not always significant

SMILES | inhibition at 100 µM (aldose reductase; [2]) | inhibition at 100 µM (aldose reductase; [3]) | inhibition at 10 µM (aldose reductase; [4]) | inhibition at 1 µM (aldose reductase; [4]) | inhibition at 0.1 µM (aldose reductase; [4]) | % Inhibition (sorbitol accumulation in sciatic nerve) ([1]; 25 mg/kg orally at 4, 8 and 24 hours after streptozotocin) | % Inhibition (sorbitol accumulation in sciatic nerve) ([1]; 2.5 mg/kg orally at 4, 8 and 24 hours after streptozotocin)
O=C1NC(=O)C2(CCc3cscc32)N1 (stereo not shown) [Example 3] | 46% |  |  |  |  |  | 
O=C1NC(=O)C2(CCc3c(Cl)sc(Cl)c32)N1 (stereo not shown) [Example 1] | 83% | 88% | 67% | 12% | -7% |  | 
O=C1NC(=O)C2(CCc3c2csc3Cl)N1 (stereo not shown) [Example 2] | 95% | 35% | 67% | -12% | 21% |  | 

Continued, in another order:

inhibition at 100 µM (aldose reductase; [2]) | inhibition at 100 µM (aldose reductase; [3]) | inhibition at 10 µM (aldose reductase; [4]) | inhibition at 1 µM (aldose reductase; [4]) | inhibition at 0.1 µM (aldose reductase; [4]) | SMILES | % Inhibition (sorbitol accumulation in sciatic nerve) ([1]; 25 mg/kg orally at 4, 8 and 24 hours after streptozotocin) | % Inhibition (sorbitol accumulation in sciatic nerve) ([1]; 2.5 mg/kg orally at 4, 8 and 24 hours after streptozotocin)
52% |  |  |  |  | O=C1NC(=O)C2(CCCc3sccc32)N1 (stereo not shown) [Example 5, 6,7-dihydro-spiro[benzo(b)thiophene-4(5H),4'-imidazolidine]-2',5'-dione] | 56% | 
80% | 75% | 55% | 18% | 15% | O=C1NC(=O)C2(CCc3sc(Cl)cc32)N1 (stereo not shown) [Example 4] |  | 20%
